From patent publication US20120059036A1, “METHOD FOR REDUCING THROMBOCYTOPENIA AND THROMBOCYTOPENIA-ASSOCIATED MORTALITY” (priority 2008, published 2012)

Key:
[1] = test system: patients experiencing ST-segment elevation myocardial infarction (STEMI); experiment: […] Phase III study: clinical outcomes (death, reinfarction, revascularization, stent thrombosis) at 30 days and 8 months; format: in vivo, human; details: for probability of death/MI: within eight months after treatment, intent-to-treat population
Description: (§1) The inclusion criteria were (1) chest pain for longer than 30 minutes with an electrocardiographic ST-segment elevation of 1 mm or greater in two or more contiguous electrocardiogram leads, or with a new left bundle-branch block, and (2) admission either within 12 hours of symptom onset or between 12 and 24 hours after onset with evidence of continuing ischemia. The exclusion criteria included administration of fibrinolytics in the previous 30 days, major surgery within 15 days, and active bleeding or previous stroke in the last six months. Immediately after eligibility criteria were met and before the visualization of coronary arteries through angiography, the treating physician at each investigational site performed open-label assignments of study treatments via sealed envelopes.
(§2) This type of regimen is described in U.S. Pat. No. 6,770,660. Abciximab was administered in a 0.25 mg/kg bolus, followed by 0.125 μg/kg/min continuous infusion for 12 hours. The administration of both drugs began at first medical contact, before arterial sheath insertion. Heparin was given at 40 to 70 U/kg, targeting an activated clotting time of at least 200 seconds. Patients received aspirin (160-325 mg orally or 250 mg intravenously, followed by 80-125 mg/d orally indefinitely) and clopidogrel (300 mg orally and then 75 mg/d for at least three months).
(§3) A 12-lead electrocardiogram was recorded before the procedure and 90 minutes after the last balloon inflation in the infarct-related artery. Follow-up visits were scheduled at one, four, and eight months.
(§4) The data for all patients with primary end-point events were reviewed by an independent adjudication committee whose members were blinded to treatment assignments. Events adjudication was performed separately by two members, and in case of disagreement, the opinion of the third member was obtained and the final decision taken by consensus. The committee was also responsible for the adjudication of all clinical events according to the Academic Research Consortium.^18
(§5) Discrete data were summarized as frequencies, and comparisons were made with the likelihood-ratio χ^2 test or Fisher exact test. Continuous data were expressed as mean (SD) or median and interquartile range according to their distribution; comparisons were made with a one-way analysis of variance or the Kruskal-Wallis test.

[2] = test system: patients experiencing ST-segment elevation myocardial infarction (STEMI); experiment: […] primary end point: at least 50% resolution of ST-segment elevation on 12-lead electrocardiogram 90 minutes after PCI; format: in vivo, human; details: for percentage of patients achieving at least 50% ST-segment resolution / patients achieving at least 50% ST-segment resolution: intention-to-treat analysis, within 90 minutes following PCI; for patients achieving at least 50% ST-segment resolution: out of 361 patients
Description: as §1, §2, §3
Changes in the ST-segment of the electrocardiogram were evaluated cumulatively before and 90 minutes after intervention. ST-segment elevation was measured to the nearest 0.5 mm at 60 milliseconds after the J point by a single experienced cardiologist who was blinded to treatment assignments. […] Quantitative angiographic analyses were performed with a validated edge-detection system (CAAS II; Pie Medical, Maastricht, the Netherlands), and coronary flow was classified according to Thrombolysis in Myocardial Infarction (TIMI) criteria. Angiographic analyses and TIMI grading were performed by one independent cardiologist who was blinded to treatment assignments.
This was based on both intention-to-treat and per-protocol principles and was applied to an exploratory analysis across several prespecified subgroups. The Cochran-Mantel-Haenszel χ^2 test was performed to evaluate possible imbalances of the relative risk among different recruiting centers.

[3] = test system: patients experiencing ST-segment elevation myocardial infarction (STEMI); experiment: MULTISTRATEGY safety analysis: bleeding, transfusion, thrombocytopenia and thrombocytopenia-associated mortality; details: for Major bleeding / Minor bleedng / Moderate thrombocytoperia (<100000 cells/mm^3) / Red blood cells transfusion ≧1 Units / Red blood cells transfusion ≧2 Units / Severe thrombocytoperia (<50000 cells/mm^3): At 30 d, safety analysis
Description: as §1, §2, §4, §5

[4] = At 8 mo, number of patients with event
[5] = At 30 d, number of patients with event

## CCCCS(=O)(=O)N[C@@H](Cc1ccc(OCCCCC2CCNCC2)cc1)C(=O)O.Cl.O [Tirofiban Plus Uncoated Stent]
[1]; At 8 mo, Kaplan-Meier estimate
  Clinically driven target-vessel revascularization: (9.1) %
  Composite of death, reinfarction, or target-vessel revascularization: (12.9) %
  Death: (3.8) %
  Death or reinfarction: (6.5) %
  Definite or probable or possible stent thrombosis: (4.3) %
  Definite or probable stent thrombosis: (3.2) %
  Definite stent thrombosis: (2.2) %
  Possible stent thrombosis: (1.6) %
  Reinfarction: (4.3) %
[1]; [4]
  Clinically driven target-vessel revascularization: 17 No.
  Composite of death, reinfarction, or target-vessel revascularization: 24 No.
  Death: 7 No.
  Death or reinfarction: 12 No.
  Definite or probable or possible stent thrombosis: 8 No.
  Definite or probable stent thrombosis: 6 No.
  Definite stent thrombosis: 4 No.
  Possible stent thrombosis: 3 No.
  Reinfarction: 8 No.
[1]; At 30 d, Kaplan-Meier estimate
  Clinically driven target-vessel revascularization: (1.6) %
  Composite of death, reinfarction, or target-vessel revascularization: (3.8) %
  Death: (1.1) %
  Death or reinfarction: (3.8) %
  Definite or probable stent thrombosis: (2.7) %
  Definite stent thrombosis: (1.6) %
  Probable stent thrombosis: (1.1) %
  Reinfarction: (2.7) %
[1]; [5]
  Clinically driven target-vessel revascularization: 3 No.
  Composite of death, reinfarction, or target-vessel revascularization: 7 No.
  Death: 2 No.
  Death or reinfarction: 7 No.
  Definite or probable stent thrombosis: 5 No.
  Definite stent thrombosis: 3 No.
  Probable stent thrombosis: 2 No.
  Reinfarction: 5 No.

## CCCCS(=O)(=O)N[C@@H](Cc1ccc(OCCCCC2CCNCC2)cc1)C(=O)O.Cl [Tirofiban, N-(butylsulfonyl)-O-[4-(4-piperidinyl)butyl]-tyrosine monohydrochloride]
[2]; consistent across recruiting centers and prespecified subgroups
  recovery from ST-segment elevation after coronary intervention in comparison with abciximab: noninferior
[2]
  percentage of patients achieving at least 50% ST-segment resolution: 85.3%
  patients achieving at least 50% ST-segment resolution: 308 patients
[1]; At 8 mo, Kaplan-Meier estimate
  Clinically driven target-vessel revascularization: (6.2) %
  Composite of death, reinfarction, or target-vessel revascularization: (9.9) %
  Death: (3.0) %
  Death or reinfarction: (5.9) %
  Definite or probable or possible stent thrombosis: (3.8) %
  Definite or probable stent thrombosis: (3.2) %
  Definite stent thrombosis: (2.7) %
  Possible stent thrombosis: (0.8) %
  Reinfarction: (4.3) %
[1]; [4]
  Clinically driven target-vessel revascularization: 23 No.
  Composite of death, reinfarction, or target-vessel revascularization: 37 No.
  Death: 11 No.
  Death or reinfarction: 22 No.
  Definite or probable or possible stent thrombosis: 14 No.
  Definite or probable stent thrombosis: 12 No.
  Definite stent thrombosis: 10 No.
  Possible stent thrombosis: 3 No.
  Reinfarction: 16 No.
[1]; At 30 d, Kaplan-Meier estimate
  Clinically driven target-vessel revascularization: (2.2) %
  Composite of death, reinfarction, or target-vessel revascularization: (4.0) %
  Death: (1.1) %
  Death or reinfarction: (3.8) %
  Definite or probable stent thrombosis: (2.4) %
  Definite stent thrombosis: (1.9) %
  Probable stent thrombosis: (0.5) %
  Reinfarction: (2.7) %
[1]; [5]
  Clinically driven target-vessel revascularization: 8 No.
  Composite of death, reinfarction, or target-vessel revascularization: 15 No.
  Death: 4 No.
  Death or reinfarction: 14 No.
  Definite or probable stent thrombosis: 9 No.
  Definite stent thrombosis: 7 No.
  Probable stent thrombosis: 2 No.
  Reinfarction: 10 No.
[1]; At 30 days
  incidence of MACE: 4.0%
[1]; At eight months
  incidence of MACE: 9.9%
[1]
  probability of death/MI: 5.9%

## Abciximab: inhibitor of the glycoprotein (GP) IIb/IIIa receptor complex; comparator drug
[3]
  Major bleeding: (1.6) %
  Minor bleedng: (6.2) %
  Moderate thrombocytoperia (<100000 cells/mm^3): (1.6) %
  Red blood cells transfusion ≧1 Units: (2.2) %
  Red blood cells transfusion ≧2 Units: (2.2) %
  Severe thrombocytoperia (<50000 cells/mm^3): (2.4) %
[3]; number of patients
  Major bleeding: 6 No.
  Minor bleedng: 23 No.
  Moderate thrombocytoperia (<100000 cells/mm^3): 6 No.
  Red blood cells transfusion ≧1 Units: 8 No.
  Red blood cells transfusion ≧2 Units: 8 No.
  Severe thrombocytoperia (<50000 cells/mm^3): 9 No.
[3]; At 30 days
  TIMI major and minor bleeding: 7.8%
  incidence of severe or moderate thrombocytopenia: 4.0%
[3]; HDB tirofiban compared with abciximab, follow-up, FIG. 3
  mortality rates of nonthrombocytopenic patients: virtually identical
[3]; within eight months, FIG. 3
  patients with drug-induced thrombocytopenia who died: 20%
[2]
  percentage of patients achieving at least 50% ST-segment resolution: 83.6%
  patients achieving at least 50% ST-segment resolution: 302 patients
[1]; At 8 mo, Kaplan-Meier estimate
  Clinically driven target-vessel revascularization: (7.3) %
  Composite of death, reinfarction, or target-vessel revascularization: (12.4) %
  Death: (4.0) %
  Death or reinfarction: (7.5) %
  Definite or probable or possible stent thrombosis: (4.3) %
  Definite or probable stent thrombosis: (3.5) %
  Definite stent thrombosis: (2.7) %
  Possible stent thrombosis: (1.1) %
  Reinfarction: (3.5) %
[1]; [4]
  Clinically driven target-vessel revascularization: 27 No.
  Composite of death, reinfarction, or target-vessel revascularization: 46 No.
  Death: 15 No.
  Death or reinfarction: 28 No.
  Definite or probable or possible stent thrombosis: 16 No.
  Definite or probable stent thrombosis: 13 No.
  Definite stent thrombosis: 10 No.
  Possible stent thrombosis: 4 No.
  Reinfarction: 13 No.
[1]; At 30 d, Kaplan-Meier estimate
  Clinically driven target-vessel revascularization: (1.6) %
  Composite of death, reinfarction, or target-vessel revascularization: (4.3) %
  Death: (2.4) %
  Death or reinfarction: (3.8) %
  Definite or probable stent thrombosis: (2.2) %
  Definite stent thrombosis: (1.3) %
  Probable stent thrombosis: (0.8) %
  Reinfarction: (1.3) %
[1]; [5]
  Clinically driven target-vessel revascularization: 6 No.
  Composite of death, reinfarction, or target-vessel revascularization: 16 No.
  Death: 9 No.
  Death or reinfarction: 14 No.
  Definite or probable stent thrombosis: 8 No.
  Definite stent thrombosis: 5 No.
  Probable stent thrombosis: 3 No.
  Reinfarction: 5 No.
[1]; At 30 days
  incidence of MACE: 4.37%
[1]; At eight months
  incidence of MACE: 12.4%
[1]
  probability of death/MI: 7.5%
